In the supplement of paper PMC10627819:

Legend:
[1] = system: S. aureus DSM 20231; assay: fitness (endpoint OD595 vs no drug) (fraction); higher = more growth
Outline: (§1)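 Fitness was measured as bacterial growth in 384-well plates inoculated at OD595 0.01 (30 µl, or 55 µl for S. pneumoniae). Media were TSB, LB Lennox or CY, at 37 °C. OD595 was read every 30 min for 14 h and background-subtracted against the first reading. Fitness is OD595 at the transition into stationary phase divided by the robust mean of no-drug control wells, capped at 1.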

[2] = system: B. subtilis 168; assay: as above
Outline: as §1

[3] = system: S. aureus DSM 20231; assay: Bliss interaction score (quartile over a dose matrix) (fitness difference); higher = more antagonism (negative = synergy)
Outline: (§2)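 Growth was read as OD595 when cultures entered stationary phase, and each value was divided by the plate's robust no-drug mean and capped at 1. This normalised ratio is the fitness value, and fitness for each single drug came from the combination data. The Bliss score subtracts the expected fitness, taken as the product, from the observed fitness and is given as quartiles across technical, biological and donor/recipient replicates.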

[4] = system: B. subtilis 168; assay: as above
Outline: as §2

[5] = system: S. aureus Newman; assay: as above
Outline: as §2

[6] = system: S. pneumoniae D39V; assay: as above
Outline: as §2

[7] = system: S. aureus Newman; assay: fitness (endpoint OD595 vs no drug) (fraction); higher = more growth
Outline: as §1

[8] = system: S. pneumoniae D39V; assay: as above
Outline: as §1

[9] = first compound 0.39 µg/mL, partner 0.125 µg/mL, one replicate
[10] = first compound 0.39 µg/mL, partner 0.25 µg/mL
[11] = first compound 0.39 µg/mL, partner 0.5 µg/mL
[12] = first compound 0.78 µg/mL, partner 0.125 µg/mL, one replicate
[13] = first compound 0.78 µg/mL, partner 0.25 µg/mL
[14] = first compound 1.56 µg/mL, partner 0.25 µg/mL
[15] = first compound 1.56 µg/mL, partner 0.5 µg/mL
[16] = first compound 0.625 µg/mL, partner 0.25 µg/mL
[17] = first compound 1.25 µg/mL, partner 0.25 µg/mL
[18] = first compound 2.5 µg/mL, partner 0.25 µg/mL
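Throughout, for Bliss interaction score (quartile over a dose matrix): first quartile when negative (synergy) and third quartile when positive (antagonism).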
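Throughout, for fitness (endpoint OD595 vs no drug): OD595 on entry to stationary phase over no-drug wells; at most 1.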

## COc1ccc(C[C@H](N)C(=O)N[C@H]2[C@@H](O)[C@H](n3cnc4c(N(C)C)ncnc43)O[C@@H]2CO)cc1 [Puromycin] + COc1cc(Cc2cnc(N)nc2N)cc(OC)c1OC [Trimethoprim]
[1]; [9]
  fitness: 0.804
[1]; [10]
  fitness: 0.605
[1]; [11]
  fitness: 0.164
[1]; first compound 0.39 µg/mL, partner 1 µg/mL
  fitness: 0.0431
[1]; [12]
  fitness: 0.921
[1]; [13]
  fitness: 0.639
[1]; first compound 0.78 µg/mL, partner 1 µg/mL
  fitness: 0.0497
[1]; first compound 1.56 µg/mL, partner 0.125 µg/mL
  fitness: 0.876
[1]; [14]
  fitness: 0.682
[1]; [15]
  fitness: 0.222
[1]; first compound 1.56 µg/mL, partner 1 µg/mL
  fitness: 0.0562
[1]; first compound 3.12 µg/mL, partner 0.125 µg/mL, one replicate
  fitness: 0.908
[1]; first compound 3.12 µg/mL, partner 0.25 µg/mL, one replicate
  fitness: 0.812
[1]; first compound 3.12 µg/mL, partner 0.5 µg/mL, one replicate
  fitness: 0.48
[1]; first compound 6.24 µg/mL, partner 0.125 µg/mL, one replicate
  fitness: 0.596
[1]; first compound 6.24 µg/mL, partner 0.25 µg/mL, one replicate
  fitness: 0.631
[1]; first compound 6.24 µg/mL, partner 0.5 µg/mL, one replicate
  fitness: 0.613
[2]; first compound 0.39 µg/mL, partner 0.1 µg/mL, one replicate
  fitness: 0.818
[2]; [9]
  fitness: 0.756
[2]; first compound 0.39 µg/mL, partner 0.2 µg/mL, one replicate
  fitness: 0.814
[2]; [10]
  fitness: 0.695
[2]; first compound 0.39 µg/mL, partner 0.4 µg/mL, one replicate
  fitness: 0.562
[2]; [11]
  fitness: 0.492
[2]; first compound 0.39 µg/mL, partner 1 µg/mL, one replicate
  fitness: 0.332
[2]; first compound 0.39 µg/mL, partner 2 µg/mL, one replicate
  fitness: 0.326
[2]; first compound 0.78 µg/mL, partner 0.1 µg/mL, one replicate
  fitness: 0.875
[2]; [12]
  fitness: 0.748
[2]; first compound 0.78 µg/mL, partner 0.2 µg/mL, one replicate
  fitness: 0.85
[2]; [13]
  fitness: 0.738
[2]; first compound 0.78 µg/mL, partner 0.4 µg/mL, one replicate
  fitness: 0.581
[2]; first compound 0.78 µg/mL, partner 0.5 µg/mL
  fitness: 0.481
[2]; first compound 0.78 µg/mL, partner 1 µg/mL, one replicate
  fitness: 0.342
[2]; first compound 0.78 µg/mL, partner 2 µg/mL, one replicate
  fitness: 0.29
[2]; first compound 1.56 µg/mL, partner 0.1 µg/mL, one replicate
  fitness: 0.962
[2]; first compound 1.56 µg/mL, partner 0.125 µg/mL, one replicate
  fitness: 0.77
[2]; first compound 1.56 µg/mL, partner 0.2 µg/mL, one replicate
  fitness: 0.831
[2]; [14]
  fitness: 0.71
[2]; first compound 1.56 µg/mL, partner 0.4 µg/mL, one replicate
  fitness: 0.575
[2]; [15]
  fitness: 0.514
[2]; first compound 1.56 µg/mL, partner 1 µg/mL, one replicate
  fitness: 0.365
[2]; first compound 1.56 µg/mL, partner 2 µg/mL, one replicate
  fitness: 0.235
[3]
  Bliss interaction score: 0.113
[4]
  Bliss interaction score: 0.0908
[5]
  Bliss interaction score: 0.0927
[6]
  Bliss interaction score: -0.203

## Cc1ncc([N+](=O)[O-])n1CCO [Metronidazole] + COc1cc(Cc2cnc(N)nc2N)cc(OC)c1OC [Trimethoprim]
[1]; first compound 0.625 µg/mL, partner 0.125 µg/mL
  fitness: 0.704
[1]; [16]
  fitness: 0.607
[1]; first compound 0.625 µg/mL, partner 1 µg/mL
  fitness: 0.0438
[1]; first compound 1.25 µg/mL, partner 0.125 µg/mL
  fitness: 0.744
[1]; [17]
  fitness: 0.619
[1]; first compound 1.25 µg/mL, partner 1 µg/mL
  fitness: 0.0565
[1]; first compound 2.5 µg/mL, partner 0.125 µg/mL
  fitness: 0.749
[1]; [18]
  fitness: 0.652
[1]; first compound 2.5 µg/mL, partner 1 µg/mL
  fitness: 0.0572
[2]; first compound 0.625 µg/mL, partner 0.1 µg/mL, one replicate
  fitness: 0.832
[2]; first compound 0.625 µg/mL, partner 0.125 µg/mL, one replicate
  fitness: 0.747
[2]; first compound 0.625 µg/mL, partner 0.2 µg/mL, one replicate
  fitness: 0.759
[2]; [16]
  fitness: 0.743
[2]; first compound 0.625 µg/mL, partner 0.4 µg/mL, one replicate
  fitness: 0.572
[2]; first compound 0.625 µg/mL, partner 0.5 µg/mL
  fitness: 0.568
[2]; first compound 0.625 µg/mL, partner 1 µg/mL, one replicate
  fitness: 0.419
[2]; first compound 0.625 µg/mL, partner 2 µg/mL, one replicate
  fitness: 0.373
[2]; first compound 1.25 µg/mL, partner 0.1 µg/mL, one replicate
  fitness: 0.866
[2]; first compound 1.25 µg/mL, partner 0.125 µg/mL, one replicate
  fitness: 0.772
[2]; first compound 1.25 µg/mL, partner 0.2 µg/mL, one replicate
  fitness: 0.83
[2]; [17]
  fitness: 0.724
[2]; first compound 1.25 µg/mL, partner 0.4 µg/mL, one replicate
  fitness: 0.555
[2]; first compound 1.25 µg/mL, partner 0.5 µg/mL
  fitness: 0.531
[2]; first compound 1.25 µg/mL, partner 1 µg/mL, one replicate
  fitness: 0.341
[2]; first compound 1.25 µg/mL, partner 2 µg/mL, one replicate
  fitness: 0.361
[2]; first compound 2.5 µg/mL, partner 0.1 µg/mL, one replicate
  fitness: 0.956
[2]; first compound 2.5 µg/mL, partner 0.125 µg/mL, one replicate
  fitness: 0.785
[2]; first compound 2.5 µg/mL, partner 0.2 µg/mL, one replicate
  fitness: 0.828
[2]; [18]
  fitness: 0.72
[2]; first compound 2.5 µg/mL, partner 0.4 µg/mL, one replicate
  fitness: 0.578
[2]; first compound 2.5 µg/mL, partner 0.5 µg/mL
  fitness: 0.471
[2]; first compound 2.5 µg/mL, partner 1 µg/mL, one replicate
  fitness: 0.396
[2]; first compound 2.5 µg/mL, partner 2 µg/mL, one replicate
  fitness: 0.44
[3]
  Bliss interaction score: -0.0577
[4]
  Bliss interaction score: 0.11
[5]
  Bliss interaction score: 0.0902
[6]
  Bliss interaction score: 0.232

## O=C(O)c1cn(C2CC2)c2cc(N3CCNCC3)c(F)cc2c1=O [Ciprofloxacin] + COc1ccc(C[C@H](N)C(=O)N[C@H]2[C@@H](O)[C@H](n3cnc4c(N(C)C)ncnc43)O[C@@H]2CO)cc1 [Puromycin]
[2]; first compound 0.0098 µg/mL, partner 0.39 µg/mL
  fitness: 0.918
[2]; first compound 0.0098 µg/mL, partner 0.78 µg/mL
  fitness: 0.956
[2]; first compound 0.0098 µg/mL, partner 1.56 µg/mL
  fitness: 0.842
[2]; first compound 0.0195 µg/mL, partner 0.39 µg/mL
  fitness: 0.721
[2]; first compound 0.0195 µg/mL, partner 0.78 µg/mL
  fitness: 0.721
[2]; first compound 0.0195 µg/mL, partner 1.56 µg/mL
  fitness: 0.683
[2]; first compound 0.039 µg/mL, partner 0.39 µg/mL
  fitness: 0.0586
[2]; first compound 0.039 µg/mL, partner 0.78 µg/mL
  fitness: 0.0556
[2]; first compound 0.039 µg/mL, partner 1.56 µg/mL
  fitness: 0.0555
[7]; first compound 0.0375 µg/mL, partner 0.39 µg/mL
  fitness: 0.679
[7]; first compound 0.0375 µg/mL, partner 0.78 µg/mL
  fitness: 0.635
[7]; first compound 0.0375 µg/mL, partner 1.56 µg/mL
  fitness: 0.651
[7]; first compound 0.075 µg/mL, partner 0.39 µg/mL
  fitness: 0.577
[7]; first compound 0.075 µg/mL, partner 0.78 µg/mL
  fitness: 0.522
[7]; first compound 0.075 µg/mL, partner 1.56 µg/mL
  fitness: 0.422
[7]; first compound 0.15 µg/mL, partner 0.39 µg/mL
  fitness: 0.0435
[7]; first compound 0.15 µg/mL, partner 0.78 µg/mL
  fitness: 0.0274
[7]; first compound 0.15 µg/mL, partner 1.56 µg/mL
  fitness: 0.0296
[8]; first compound 0.125 µg/mL, partner 1 µg/mL
  fitness: 0.944
[8]; first compound 0.125 µg/mL, partner 2 µg/mL
  fitness: 0.92
[8]; first compound 0.125 µg/mL, partner 4 µg/mL
  fitness: 0.492
[8]; first compound 0.25 µg/mL, partner 1 µg/mL
  fitness: 0.808
[8]; first compound 0.25 µg/mL, partner 2 µg/mL
  fitness: 0.846
[8]; first compound 0.25 µg/mL, partner 4 µg/mL
  fitness: 0.51
[8]; first compound 0.5 µg/mL, partner 4 µg/mL
  fitness: 0.347
[3]
  Bliss interaction score: -0.135
[4]
  Bliss interaction score: -0.118
[5]
  Bliss interaction score: -0.132
[6]
  Bliss interaction score: -0.0901
